Test results published in ChEMBL document CHEMBL3885881, “DrugMatrix”.

Columns and labels:
[1] = organism: Rattus norvegicus; format: toxicity, organism-based, Sprague-Dawley; conditions: in vivo, po, 75 mg/kg, 24 h, route oral GAVAGE, dose level High, time 1 day, vehicle .5 % CMC
Description: DrugMatrix - Regimen: Single

[2] = organism: Rattus norvegicus; test: DrugMatrix - Regimen: Daily Repeat; format: toxicity, organism-based, Sprague-Dawley; set-up: regimen Daily Repeat, gender Male, age 6-8 weeks; conditions: in vivo, po, 75 mg/kg, route oral GAVAGE, dose level High, vehicle .5 % CMC; for ABSOLUTE BASOPHIL / ABSOLUTE EOSINOPHIL / ABSOLUTE LYMPHOCYTE / ABSOLUTE MONOCYTE / ABSOLUTE SEGMENTED NEUTROPHIL / BASOPHIL / EOSINOPHIL / ERYTHROCYTE COUNT / HEMATOCRIT / HEMOGLOBIN / LEUKOCYTE COUNT / LYMPHOCYTE / MEAN CORPUSCULAR HEMOGLOBIN / MEAN CORPUSCULAR HEMOGLOBIN CONCENTRATION / MEAN CORPUSCULAR VOLUME / MONOCYTE / NEUTROPHIL / NUCLEATED RED BLOOD CELLS / PLATELET COUNT: tissue Blood; for ALANINE AMINOTRANSFERASE / ALBUMIN / ALKALINE PHOSPHATASE / ASPARTATE AMINOTRANSFERASE / BLOOD UREA NITROGEN / CARBON DIOXIDE / CHLORIDE / CHOLESTEROL / CREATININE / GLUCOSE / LACTATE DEHYDROGENASE / LIPASE / PHOSPHORUS / POTASSIUM / SODIUM / TOTAL BILIRUBIN / TOTAL PROTEIN / URIC ACID: tissue Plasma

## COc1ccc(C2CNC(=O)C2)cc1OC1CCCC1 (configuration not stated) [ROLIPRAM]
[1]; tissue Blood
  ABSOLUTE EOSINOPHIL: 109.33 CELLS/uL
  ABSOLUTE LYMPHOCYTE: 7018.33 CELLS/uL
  ABSOLUTE MONOCYTE: 257 CELLS/uL
  ABSOLUTE SEGMENTED NEUTROPHIL: 1082 CELLS/uL
  BASOPHIL: 0%
  EOSINOPHIL: 1.33%
  ERYTHROCYTE COUNT: 5.95 x10E6/uL
  HEMATOCRIT: 37%
  HEMOGLOBIN: 13.5 G/DL
  LEUKOCYTE COUNT: 8.47 x10E3/uL
  LYMPHOCYTE: 83.33%
  MEAN CORPUSCULAR HEMOGLOBIN: 22.7 pg
  MEAN CORPUSCULAR HEMOGLOBIN CONCENTRATION: 36.47 G/DL
  MEAN CORPUSCULAR VOLUME: 62.17 fL
  MONOCYTE: 3%
  NEUTROPHIL: 12.33%
  NUCLEATED RED BLOOD CELLS: 0 /100WBC
  PLATELET COUNT: 1249.33 x10E3/uL
[1]; tissue Plasma
  ALANINE AMINOTRANSFERASE: 29 u/L
  ALBUMIN: 4.47 G/DL
  ALKALINE PHOSPHATASE: 403.67 u/L
  ASPARTATE AMINOTRANSFERASE: 74.67 u/L
  BLOOD UREA NITROGEN: 13.33 mg/dL
  CARBON DIOXIDE: 34.67 mmol/L
  CHLORIDE: 103 MEQ/L
  CHOLESTEROL: 69.67 mg/dL
  CREATININE: 0.18 mg/dL
  GLUCOSE: 144.33 mg/dL
  LACTATE DEHYDROGENASE: 95.67 u/L
  LIPASE: 8.67 u/L
  PHOSPHORUS: 11.1 mg/dL
  POTASSIUM: 5.46 MEQ/L
  SODIUM: 151.33 MEQ/L
  TOTAL BILIRUBIN: 0.1 mg/dL
  TOTAL PROTEIN: 6.4 G/DL
  URIC ACID: 1.17 mg/dL
[2]; 72 h, time 3 day
  ABSOLUTE BASOPHIL: 0 CELLS/uL
  ABSOLUTE EOSINOPHIL: 174 CELLS/uL
  ABSOLUTE LYMPHOCYTE: 10500 CELLS/uL
  ABSOLUTE MONOCYTE: 432 CELLS/uL
  ABSOLUTE SEGMENTED NEUTROPHIL: 3427.33 CELLS/uL
  BASOPHIL: 0%
  EOSINOPHIL: 1%
  ERYTHROCYTE COUNT: 6.02 x10E6/uL
  HEMATOCRIT: 37.7%
  HEMOGLOBIN: 13.93 G/DL
  LEUKOCYTE COUNT: 14.53 x10E3/uL
  LYMPHOCYTE: 73.33%
  MEAN CORPUSCULAR HEMOGLOBIN: 23.2 pg
  MEAN CORPUSCULAR HEMOGLOBIN CONCENTRATION: 36.97 G/DL
  MEAN CORPUSCULAR VOLUME: 62.73 fL
  MONOCYTE: 2.67%
  NEUTROPHIL: 23%
  NUCLEATED RED BLOOD CELLS: 0 /100WBC
  PLATELET COUNT: 1088.33 x10E3/uL
  ALANINE AMINOTRANSFERASE: 60.33 u/L
  ALBUMIN: 4.3 G/DL
  ALKALINE PHOSPHATASE: 331.67 u/L
  ASPARTATE AMINOTRANSFERASE: 73.33 u/L
  BLOOD UREA NITROGEN: 14.67 mg/dL
  CARBON DIOXIDE: 28 mmol/L
  CHLORIDE: 104 MEQ/L
  CHOLESTEROL: 63.33 mg/dL
  CREATININE: 0.17 mg/dL
  GLUCOSE: 170.67 mg/dL
  LACTATE DEHYDROGENASE: 116 u/L
  LIPASE: 10 u/L
  PHOSPHORUS: 11 mg/dL
  POTASSIUM: 6.1 MEQ/L
  SODIUM: 147.83 MEQ/L
  TOTAL BILIRUBIN: 0.1 mg/dL
  TOTAL PROTEIN: 6.23 G/DL
  URIC ACID: 1.73 mg/dL
[2]; 120 h, time 5 day
  ABSOLUTE BASOPHIL: 0 CELLS/uL
  ABSOLUTE EOSINOPHIL: 142.67 CELLS/uL
  ABSOLUTE LYMPHOCYTE: 8076.67 CELLS/uL
  ABSOLUTE MONOCYTE: 387 CELLS/uL
  ABSOLUTE SEGMENTED NEUTROPHIL: 1493.67 CELLS/uL
  BASOPHIL: 0%
  EOSINOPHIL: 1.33%
  ERYTHROCYTE COUNT: 6.66 x10E6/uL
  HEMATOCRIT: 40%
  HEMOGLOBIN: 14.37 G/DL
  LEUKOCYTE COUNT: 10.1 x10E3/uL
  LYMPHOCYTE: 81.33%
  MEAN CORPUSCULAR HEMOGLOBIN: 21.6 pg
  MEAN CORPUSCULAR HEMOGLOBIN CONCENTRATION: 35.93 G/DL
  MEAN CORPUSCULAR VOLUME: 60.07 fL
  MONOCYTE: 3.67%
  NEUTROPHIL: 13.67%
  NUCLEATED RED BLOOD CELLS: 0 /100WBC
  PLATELET COUNT: 1039 x10E3/uL
  ALANINE AMINOTRANSFERASE: 69.67 u/L
  ALBUMIN: 4.5 G/DL
  ALKALINE PHOSPHATASE: 284.67 u/L
  ASPARTATE AMINOTRANSFERASE: 99.67 u/L
  BLOOD UREA NITROGEN: 15.33 mg/dL
  CARBON DIOXIDE: 34.33 mmol/L
  CHLORIDE: 101.67 MEQ/L
  CHOLESTEROL: 82.67 mg/dL
  CREATININE: 0.18 mg/dL
  GLUCOSE: 127 mg/dL
  LACTATE DEHYDROGENASE: 138.67 u/L
  LIPASE: 8.67 u/L
  PHOSPHORUS: 9.93 mg/dL
  POTASSIUM: 6.21 MEQ/L
  SODIUM: 149.7 MEQ/L
  TOTAL BILIRUBIN: 0.13 mg/dL
  TOTAL PROTEIN: 6.8 G/DL
  URIC ACID: 1.3 mg/dL
[2]; […], time 14 day
  ABSOLUTE BASOPHIL: 0 CELLS/uL
  ABSOLUTE EOSINOPHIL: 252.2 CELLS/uL
  ABSOLUTE LYMPHOCYTE: 9667.6 CELLS/uL
  ABSOLUTE MONOCYTE: 605.6 CELLS/uL
  ABSOLUTE SEGMENTED NEUTROPHIL: 4994.6 CELLS/uL
  BASOPHIL: 0%
  EOSINOPHIL: 1.6%
  ERYTHROCYTE COUNT: 6.09 x10E6/uL
  HEMATOCRIT: 35.84%
  HEMOGLOBIN: 13.22 G/DL
  LEUKOCYTE COUNT: 15.52 x10E3/uL
  LYMPHOCYTE: 69.8%
  MEAN CORPUSCULAR HEMOGLOBIN: 21.78 pg
  MEAN CORPUSCULAR HEMOGLOBIN CONCENTRATION: 36.88 G/DL
  MEAN CORPUSCULAR VOLUME: 59 fL
  MONOCYTE: 3.4%
  NEUTROPHIL: 25.2%
  NUCLEATED RED BLOOD CELLS: 0 /100WBC
  PLATELET COUNT: 1123.6 x10E3/uL
  ALANINE AMINOTRANSFERASE: 56 u/L
  ALBUMIN: 3.84 G/DL
  ALKALINE PHOSPHATASE: 286.6 u/L
  ASPARTATE AMINOTRANSFERASE: 76.6 u/L
  BLOOD UREA NITROGEN: 15.4 mg/dL
  CARBON DIOXIDE: 31.8 mmol/L
  CHLORIDE: 104 MEQ/L
  CHOLESTEROL: 55.8 mg/dL
  CREATININE: 0.19 mg/dL
  GLUCOSE: 131.8 mg/dL
  LACTATE DEHYDROGENASE: 80.4 u/L
  LIPASE: 9 u/L
  PHOSPHORUS: 9.08 mg/dL
  POTASSIUM: 5.55 MEQ/L
  SODIUM: 149.03 MEQ/L
  TOTAL BILIRUBIN: 0.16 mg/dL
  TOTAL PROTEIN: 5.98 G/DL
  URIC ACID: 0.64 mg/dL
